# Patent publication US11992469B2, “Targeting mitochondrial dynamics by mitochondrial fusion promoter M1 as a treatment strategy for nervous system injury” (City University of Hong Kong, priority 2020, dated 2024)
# Assays:
# [1] = tested on: MEF Mfn1−/− or Mfn2−/− cultures; settings: Mfn1 or Mfn2 knockout; cited from earlier work
# [2] = tested on: adult dorsal root ganglion (DRG) neurons; assay: Neurite outgrowth assay in primary cultures of axotomized adult DRG neurons; format: cell-based, C57BL/6 mice; settings: 2.5 μM, 17 hours
# Description: FIG. 1 depicts data showing that M1 increases the length of regenerating axons which is directly proportional to the size of mitochondria in DRG neurons. Wildtype adult DRG neurons were treated with M1 at a concentration of 2.5 μM, and 0.1% DMSO was used as vehicle controls. After 17 hours of incubation, cultures were fixed and immunostained with anti-βIII-tubulin antibodies for neurite outgrowth assay. […] Scale bar: 500 μm. […] More than 80 DRG neurons were quantified from each treatment group. Mean±SEM of triplicates. ***P<0.001; Student's t-test. n.s., not significant. CTL, control.
# The current study aimed to investigate the therapeutic potential of mitochondrial fusion promoter M1 for treating patients with nerve injuries. First, we examined if mitochondrial fusion promoter M1 could enhance the intrinsic growth capacity of adult neurons, a critical determinant for successful axon regeneration after nerve injuries. We used primary cultures of axotomized dorsal root ganglion (DRG) neurons as an in vitro model to assess the extent of neurite outgrowth after treating the neurons with mitochondrial fusion promoter M1. Primary cultures of DRG neurons were prepared from adult C57BL/6 mice (8-12 weeks old). The DRG neurons were first dissected out, digested with collagenase/dispase II solution (Roche Diagnostics), trypsinized and dissociated mechanically by three flame-polish Pasteur pipettes with different diameters. […]
# For neurite outgrowth assay, 30 non-overlapping images were captured at 10× magnifications using Nikon Ni-E epifluorescence microscope equipped with a motorized stage. Total neurite length of each neuron from each condition were automatically measured using WIS-NeuroMath software (Weizmann Institute of Science). At least 250 neurons were quantified from each condition to obtain the average total neurite length. […]
# [3] = tested on: sciatic nerve crush injury (peripheral nerve injury model); assay: Quantification of GAP-43-positive regenerating axons after sciatic nerve crush injury; format: in vivo, C57BL/6 mice; settings: 3 days after injury; 5 mm distal to crushed site
# Description: (§1) FIG. 2 depicts an experimental paradigm for assessing the growth-promoting effects of mitochondrial fusion promoter M1 after peripheral nerve injury. Sciatic nerve crush injury was performed on adult male C57BL/6 mice. Immediately after crush, 20-60 μg of mitochondrial fusion promoter M1 was directly applied on top of the crushed site, followed by a total of 6 administrations (i.e. morning and evening administration with at least 8 hours apart). Sciatic nerve pinch test and axon quantification were performed on day 3 post-injury.
# FIG. 3 depicts data showing that mitochondrial fusion promoter M1 accelerates in vivo axonal regrowth after sciatic nerve crush injury in adult mice. Sciatic nerve crush injury was performed on adult C57BL/6 mice (8-12 weeks old). A total of 6 administrations of mitochondrial fusion promoter M1 was directly applied to the crushed site for 3 consecutive days. Sciatic nerve pinch test and axon quantification were performed 3 days after injury. […]
# (§2) We first confirmed the growth-promoting effects of mitochondrial fusion promoter M1 using sciatic nerve pinch test. The results from sciatic nerve pinch test were subsequently verified by quantifications of GAP-43-positive regenerating axons 3 days after sciatic nerve crush injury.
# [4] = tested on: dopaminergic neuron-like SH-SY5Y cells; settings: 1-methyl-4-phenyl-pyridinium (MPP+); cited from earlier work
# [5] = tested on: optic nerve crush injury (CNS injury model); assay: Axon regeneration (CTB-555-labelled axons) after optic nerve crush injury; format: in vivo, C57BL/6 mice
# [6] = tested on: retinal ganglion cells (RGCs); assay: Retinal ganglion cell (RGC) survival after optic nerve crush injury (RBPMS staining); format: in vivo, C57BL/6 mice
# [7] = tested on: optic nerve crush injury (CNS injury model); assay: Optogenetic stimulation of RGCs and local field potential (LFP) recordings in superior colliculus after optic nerve crush; format: in vivo, mice; settings: for eye-evoked RMS LFP amplitude in superior colliculus: six weeks after optic nerve crush
# Description: Two weeks before LFP recordings, AAV overexpressing a fusion of channelrhodopsin 2 and mCherry was injected into the injured eye of the mice. […] Blue lines indicated optical stimulation in the injured eye. (B) Eye-evoked root-mean-square (RMS) LFP amplitudes were automatically determined using Spike2 software with customized MATLAB program. Administration of M1 markedly elevated the eye-evoked RMS LFP amplitudes compared with vehicle-treated controls. Combination of phosphatase and tensin homolog (Pten) deletion and M1 treatment further increased the RMS LFP amplitudes after optical stimulations of injured RGCs. Mean±SEM (n=4-5 per group). *P<0.05, one-way ANOVA with Bonferroni post-hoc test.
# To record evoked LFP in SC, mice received intravitreal injection of AAV-ChR2-mCherry […]. Six weeks after optic nerve crush injury, we stimulated the injured RGCs by placing an optical fiber with blue laser at 473 nm illuminated at the periphery of the left eye (injured). Evoked LFPs in response to the optical stimuli from ChR2-overexpressing RGCs were recorded in the SC. There were virtually no LFP amplitudes that could be detected from the vehicle-treated mice (FIG. 7A), which was consistent with the histology results. […] Treating the mice with M1 and Pten deletion restored almost 25% of the maximal LFP amplitude compared with uninjured mice.
# To optically stimulate the RGCs in vivo, AAV expressing a fusion of channelrhodopsin-2 and mCherry (AAV-ChR2-mCherry) at viral titre of 1×10^13 vg/ml was injected intravitreally into both eyes two weeks before optogenetics experiments. For intravitreal injection, a micropipette was gently inserted into the peripheral retina of the eye, just behind the ora serrata, placed with an angle to avoid damages to the lens. […]
# The data recorded from the system was used as digital input signals for synchronization of the optogenetics setup. Data were analyzed offline using spike2 software (Version 8) and customized MATLAB program. Root-mean-square (RMS) amplitudes after optical stimulation was calculated (FIG. 7).
# [8] = tested on: sciatic nerve crush injury (peripheral nerve injury model); assay: Sciatic nerve pinch test after sciatic nerve crush injury; format: in vivo, C57BL/6 mice; settings: 3 days after injury
# Description: as §1
# FIG. 3 depicts data showing that mitochondrial fusion promoter M1 accelerates in vivo axonal regrowth after sciatic nerve crush injury in adult mice. […] Sciatic nerve pinch test and axon quantification were performed 3 days after injury. […]
# as §2
# Following the completion of dosing paradigm of M1, sciatic nerve pinch test was performed on the ipsilateral nerves 3 days after sciatic nerve crush injury. […] The distance (in mm) was recorded from the crushed site to the most distal point of the nerve where initial withdrawal response was generated after pinching (FIG. 3A).
smiles,measurement,setting,value
CC(=NNc1c(Cl)cc(Cl)cc1Cl)c1cc(Cl)ccc1O [M1],restoration of mitochondrial fragmentation,[1],completely restored
same,cell survival of DRG neurons,[2],no cell survival effect
same,mitochondrial size in DRG neurons (distal axons),[2],increase in mitochondrial size
same,increase in neurite outgrowth from adult DRG neurons,[2]; vs 0.1% DMSO vehicle,49%
same,increase in number of GAP-43-positive regenerating axons vs vehicle controls,[3],2 fold
same,protection from MPP+-induced neurotoxicity,[4],protected
same,axon regeneration after optic nerve crush,"[5]; day 14 post-injury, 1 μg intravitreal at days 0 and 7",robust axon regeneration
same,distance reached by regenerating axons,[5]; day 28 post-injury,reach the optic chiasm
same,axon regeneration after optic nerve crush,"[5]; day 28 post-injury, 1 μg intravitreal at days 0, 7, 14 and 21",robust axon regeneration
same,distance reached by regenerating axons,"[5]; six weeks after optic nerve crush injury, intravitreal injection",reaching superior colliculus
same,RGC survival vs vehicle-treated controls,[6]; 14 days after optic nerve crush injury,more retinal ganglion cells (RGCs) were survived
same,RGC survival vs vehicle-treated controls,[6]; 28 days after optic nerve crush injury,more retinal ganglion cells (RGCs) were survived
same,restored share of maximal LFP amplitude compared with uninjured mice,[7]; M1 and Pten deletion,~25%
same,eye-evoked RMS LFP amplitude in superior colliculus,[7]; M1-treated mice,59.82±3.6 μV
same,eye-evoked RMS LFP amplitude in superior colliculus,[7]; Pten-knockout (Pten-KO) and M1-treated mice,88.36±3.13 μV
same,dose of maximal effect on distal extent of axonal regrowth (pinch test),[8],20 µg/day
same,increase in most distal axonal regrowth (sciatic nerve pinch test),"[8]; 20-60 μg applied to crushed site, 6 administrations",55%
